# Results reported in patent publication US20240181125A1, “COMPOSITIONS AND METHODS FOR SCARLESS WOUND HEALING IN DIABETES” (Washington University, priority 2022, published 2024).
# “Also recorded” adds a separate entry of the source.
# Columns and labels:
# TGFβ1/p38 pathway = test: Immunoblotting of p-p38 in HDFs; format: cell-based, human; conditions: high glucose
# Experimental: For in vitro tests, protein lysates were collected from HDFs. Pre-cooled cell scrapers were used to detach the cells, and the cells were re-suspended in RIPA lysis buffer with the inhibitor cocktail. For in vivo tests, wound skin tissues were washed three times with pre-cooled DPBS, dissected into small pieces, and re-suspended in RIPA lysis buffer containing protease and phosphatase inhibitors. Homogenization was then performed thereafter with an ultrasonic processor (Cole Parmer). After centrifugation at 12,000 g for 20 min, the supernatants were collected, and protein concentrations were measured using a Bradford protein assay kit (Bio-rad).
# The protein samples were separated by 10% Mini-PROTEAN TGX stain-free precast gels (Bio-rad) and transferred onto an immune-blot PVDF membrane. The blots were washed three times with DPBS containing 0.1% Tween 20 (PBST), blocked with 5% milk powder in PBST buffer for 40 min, and incubated with primary antibodies at specific dilutions overnight at 4° C. The primary antibodies included rabbit GAPDH antibody (1:5000, Cell signaling), rabbit anti-a-smooth muscle actin (α-SMA) antibody (1:2000, Cell signaling), rabbit anti-phospho-Smad2(Ser465/467)/Smad3 (Ser423/425) (1:500, Cell signaling), and rabbit anti-phospho-p38 (1:500, Cell signaling). The membranes were washed three times with PBST and incubated with horseradish peroxidase (HRP)-conjugated secondary antibodies (1:2500). Immunoblots were then washed with PBST and detected with a WesternBright HRP substrate detection kit (Advansta). The ChemiDoc XPS+system (Bio-rad) was used to image the blots.
# [1] = In vitro release of peptide from hydrogel; format: physicochemical; conditions: loadings 10, 20, 50 μg/mL; three weeks
# Experimental: To characterize the ECG release properties of the NIPAAm-based hydrogels disclosed herein, the following experiments were conducted. Hydrogel samples were synthesized with varying levels of ECG loading: 10 μg/mL, 20 μg/mL, and 50 μg/mL. The cumulative release of ECG from the hydrogel samples was assessed over a three-week period.
# Wound dressings were fabricated by encapsulating PTβR2I in the hydrogel solution at 4° C. Briefly, PTβR2I solution was mixed with 6 wt. % hydrogel solution to reach final PTβR2I concentrations of 10 μg/mL, 20 μg/mL and 50 μg/mL. The mixtures were stirred at 4° C. for 12 hours. To determine PTβR2I release kinetics, the mixtures were first incubated at 37° C. to gel. After 1 hour, the supernatant was replaced by a release medium (DPBS with 1% P/S). The medium was then collected at pre-determined time points for 21 days, and a fresh release medium was added after each collection. The concentration of the released PTβR2I was determined by measuring the fluorescence intensity and calculating the corresponding concentration using a standard curve. The bioactivity of the released PTβR2I was evaluated by its ability to bind to the TβR2 on the HDFs. […] After 2 hours of incubation, the cells were washed three times with DPBS, and the fluorescence intensity was measured using a microplate reader (excitation/emission=485/535 nm).
# [2] = system: dermal wounds of db/db mice; test: Example 3 dermal wound closure, subcutaneous ECG/gel; format: in vivo
# Experimental: db/db (Diabetic, […]) mice were used as an animal wound model. Dermal wounds were created using sterile 5 mm biopsy punches to expose the underlying muscle fascia, followed by subcutaneous injection of either control gel (6 wt %) or ECG/gel (50 μg/mL ECG in 6 wt % gel). In addition, a subgroup of the dermally-wounded mice was left untreated as controls. The dermal wounds of all mice were observed every other day until recovery using a digital camera to record successive images as well as measuring wound size using digital calipers. Image analysis using ImageJ was also performed to do a blind measurement of wound size. Subgroups of the mice were sacrificed at three different time points: day 3, day 8, and day 16. Skin samples were collected from the sacrificed mice for histology, immunohistochemistry analysis, and Western blot studies.
# HDF, HaCaT, HAECs, BMM = test: Example 4 in vitro survival, migration, cytokine and growth factor secretion with TGF-beta I and high glucose; format: cell-based, human, mouse
# Excerpt: Human dermal fibroblasts (HDF), human skin keratinocytes (HaCaT), human artery endothelial cells (HAECs), and mouse bone marrow-derived macrophages (BMM) were used to test the in vitro survival, migration, secretion of inflammatory cytokines, and angiogenic growth factors in the presence of TGF-beta I and high glucose content.
# FIG. 4B is a Western blot of p38 and GAPDH (control) expression for dermal fibroblasts under high glucose levels. Untreated cells (control) were compared with cells exposed to 10 ng/ml of TGFβ with ECG treatments of 0 μg/mL, 10 μg/mL, and 1 μg/mL.
molecule,measurement,setting,value
"Oc1ccc(-c2nc(-c3ccncc3)c(-c3ccc(F)cc3)[nH]2)cc1 [SB202190, reference compound]",p-p38 expression,TGFβ1/p38 pathway; with TGFβ1,notably downregulated
ECGLLPVGRPDRVWRLCK,duration of initial rapid release of ECG from hydrogel,[1],3 to 4 days
same,p38 expression in wound tissues,[2]; Western blot vs control gel,suppressed; also recorded: downregulated
same,increase of blood vessel density and mature blood vessel density vs control,[2]; day 8,up to 4 fold
same,"survival and migration of keratinocytes, fibroblasts, and endothelial cells","HDF, HaCaT, HAECs, BMM; presence of TGF-beta I",improved
same,angiogenic growth factor secretions,"HDF, HaCaT, HAECs, BMM; various cell types",promoted
same,pro-inflammatory cytokines expression,"HDF, HaCaT, HAECs, BMM; various cell types",suppressed
"TGFβ1: growth factor used as stimulus, 10 ng/ml",increase in baseline phosphorylation of p38 relative to no TGFβ1 group,TGFβ1/p38 pathway,~4 fold
